Numbers after ± are expanded uncertainties.
Conditions: for surface tension liquid-gas: Pendant drop shape; for mass density: 101.33 kPa, Liquid, Vibrating tube method

Row | surface tension liquid-gas (298.15 K) [mN/m] | mass density (298.15 K) [kg/m3] | surface tension liquid-gas (303.15 K) [mN/m] | mass density (303.15 K) [kg/m3] | surface tension liquid-gas (313.15 K) [mN/m] | mass density (313.15 K) [kg/m3] | surface tension liquid-gas (323.15 K) [mN/m] | mass density (323.15 K) [kg/m3] | surface tension liquid-gas (333.15 K) [mN/m] | mass density (333.15 K) [kg/m3] | surface tension liquid-gas (343.15 K) [mN/m] | mass density (343.15 K) [kg/m3] | Structure (SMILES)
1 | 54.5 ± 0.6 | 1128.47 ± 8 | 53.6 ± 0.6 | 1125.91 ± 8 | 51.9 ± 0.6 | 1119.35 ± 8 | 50.5 ± 0.5 | 1112.78 ± 8 | 48.4 ± 0.5 | 1107.1 ± 8 | 46.8 ± 0.5 | 1100.5 ± 8 | CCCCn1cc[n+](C)c1.NCC(=O)[O-] [1-butyl-3-methylimidazolium glycinate]
2 | 49.7 ± 0.5 | 1129.32 ± 8 | 49.2 ± 0.5 | 1125.95 ± 8 | 48.4 ± 0.5 | 1118.97 ± 8 | 47.6 ± 0.5 | 1111.78 ± 8 | 46.8 ± 0.5 | 1104.3 ± 8 | 46.1 ± 0.5 | 1097.73 ± 8 | CCCCn1cc[n+](C)c1.O=C([O-])CO [1-butyl-3-methylimidazolium glycolate]
3 | 42.7 ± 0.5 | 1100.2 ± 8 | 42.3 ± 0.5 | 1096.63 ± 8 | 41.9 ± 0.5 | 1089.79 ± 8 | 41.3 ± 0.5 | 1083.17 ± 8 | 40.6 ± 0.5 | 1076.42 ± 8 | 40 ± 0.5 | 1069.75 ± 8 | CC(O)C(=O)[O-].CCCCn1cc[n+](C)c1 [1-butyl-3-methylimidazolium lactate]
4 | 40.1 ± 0.5 | 1105.25 ± 8 | 39.7 ± 0.5 | 1102.19 ± 8 | 39.1 ± 0.4 | 1095.87 ± 8 | 38.7 ± 0.4 | 1089.66 ± 8 | 38.3 ± 0.4 | 1083.46 ± 8 | 37.8 ± 0.4 | 1077.22 ± 8 | CCCC[n+]1ccn(C)c1.O=C([O-])c1ccccc1 [3-butyl-1-methylimidazolium benzoate]
